The test system of this assay is adipocytes derived from a patient with diabetes, who was severely obese. The assay is described as follows: Screening of functional food product materials (samples 1 to 71) for APR in adipocytes derived from a severely obese diabetic patient. It is filed as cell-based, human. The following applies: 48 hour value divided by 96 hour value. How it is done: Fat tissues were harvested from remainder tissues removed at the time of surgery of a subject (a patient who was severely obese and had diabetes) who provided informed consent. These fat tissues were treated in the same manner as in Example 1 and used in screening for the adiponectin production-promoting action of functional food product materials (samples 1 to 71).
The samples 1 to 71 (Table 1 and Table 2) were suspended and dissolved in water, heated water (80° C.) or DMSO, and then stirred for 30 minutes, followed by filter filtration […]) for preparation thereof. The sample 25 was prepared by filter filtration (Φ0.45 μm) without carrying out dilution. Further, with regard to the samples 1 to 18, each of the samples was made with water to 1% suspension or aqueous solution, followed by filter filtration (Φ0.45 μm) for preparation thereof. Botanbouhu extract of the samples 58 and 59 was prepared in the same manner as in Example 2. Table 1 and Table 2 show material, solvent and concentration in the culture medium of samples 1 to 71 (samples 6 to 8 “Mixture of three types of peptides” (manufactured by Katano Bussan) is a mixture of peptides derived from dried kelp or konbu, sardine and pearl oyster).
Eight days after DM-2 treatment, the medium was changed to AM-1 medium with each of the samples 1 to 71 being added and 48 hour value and 96 hour value were measured in the same manner as described in Example 3. APR (Adiponectin Production Ratio; adiponectin secretion promoting index) was calculated by dividing the 48 hour value by the 96 hour value. The results are shown in Table 1 and Table 2 and FIG. 4A.

[1] abbreviates: concentration in culture medium 0.067%.
Where [2] appears, read: concentration in culture medium 10 nM.

`CC1=C(/C=C/C(C)=C/C=C/C(C)=C/C=C/C=C(C)/C=C/C=C(C)/C=C/C2=C(C)C(=O)[C@@H](O)CC2(C)C)C(C)(C)C[C@H](O)C1=O` [Sample 37, Astaxanthin] came in with an APR under setting [1] of 0.34.

Under setting [2], `CCc1ccc(CCOc2ccc(CC3SC(=O)NC3=O)cc2)nc1` (stereo not shown) [Sample 60, Pioglitazone] gave an APR of 0.96.

Turning to `CCCc1nc2c(C)cc(-c3nc4ccccc4n3C)cc2n1Cc1ccc(-c2ccccc2C(=O)O)cc1` [Sample 61, Telmisartan], the APR under setting [2] worked out at 0.54. `Cc1c(C(=O)NN2CCCCC2)nn(-c2ccc(Cl)cc2Cl)c1-c1ccc(Cl)cc1` [Sample 62, Rimonabant]: the APR under setting [2] was 0.69. For `CC(=O)S[C@@H]1CC2=CC(=O)CC[C@]2(C)[C@H]2CC[C@@]3(C)[C@@H](CC[C@@]34CCC(=O)O4)[C@H]12` [Sample 63, Spironolactone], under setting [2], the APR amounted to 0.60. For the molecule `COC(=O)[C@@H]1CC2=CC(=O)CC[C@]2(C)[C@@]23O[C@@H]2C[C@@]2(C)[C@@H](CC[C@@]24CCC(=O)O4)[C@H]13` [Sample 64, Eplerenone], the APR under setting [2] amounted to 0.62. The molecule `CC(C)(Oc1ccc(CCNC(=O)c2ccc(Cl)cc2)cc1)C(=O)O` [Sample 65, Bezafibrate] registered an APR under setting [2] of 0.75. The same measure, in the same setting: the same measure for `O=S(=O)(c1cccc2cnccc12)N1CCCNCC1` [Sample 66, Fasudil]: 0.58; for `CCCc1nc(C(C)(C)O)c(C(=O)O)n1Cc1ccc(-c2ccccc2-c2nnn[nH]2)cc1` [Sample 69, Olmesartan]: 0.00. Still for that read-out and setting: in the case of `CCC1=C(C)CN(C(=O)NCCc2ccc(S(=O)(=O)NC(=O)N[C@H]3CC[C@H](C)CC3)cc2)C1=O` [Sample 70, Glimepyride] it was 0.82. Same read-out and setting: the same measure for `CN(C)C(=N)N=C(N)N` [Sample 71, Metformin]: 0.53.

In the case of Fucoxanthin [Sample 36], under setting [1], the APR was 0.34. Under setting [1], Hyaluronic acid [Sample 31] showed an APR of 0.36.

Source of the values: patent US20150118329A1, “METHOD FOR PROMOTING ADIPONECTIN PRODUCTION, PREVENTION AND TREATMENT OF HYPOADIPONECTINEMIA” (AMINO UP CHEMICAL CO., LTD., priority 2011, published 2015).
